Assay results from paper PMC3726061 (Journal of pharmaceutical and biomedical analysis, 2012).
Counter-ions that a name gives are not always drawn. Like-named read-outs stand apart in the source and are kept apart here.

How the values were obtained:
[1] = biological target: T1, σ2 receptors (Rattus norvegicus, UniProt Q5U3Y7); test: σ2 competition binding, [3H]DTG with
T1 sequence (Q5U3Y7 1-176): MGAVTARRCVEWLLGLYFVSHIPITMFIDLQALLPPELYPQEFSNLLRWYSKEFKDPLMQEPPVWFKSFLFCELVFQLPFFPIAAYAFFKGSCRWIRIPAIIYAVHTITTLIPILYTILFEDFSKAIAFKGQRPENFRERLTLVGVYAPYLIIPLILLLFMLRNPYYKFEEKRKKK

[2] = biological target: σ2; details: read-out: Ki at σ2 (nM) Literature, footnote not given, cited from earlier work
[3] = biological target: σ1; details: read-out: Ki at σ1 (nM) Literature, footnote not given, cited from earlier work
[4] = biological target: T2, σ1 receptors (Rattus norvegicus, UniProt Q9R0C9); test: σ1 competition binding, [3H]
[5] = biological target: T2, σ1 receptors; details: read-out: Ki at σ1 (nM) Experimental Brain/Brandel; rat brain P2, 5 nM [3H](+)-pentazocine, cell harvester
[6] = biological target: σ2; details: read-out: Ki at σ2 (nM) Literature, cited from earlier work
[7] = biological target: σ1; details: read-out: Ki at σ1 (nM) Literature, cited from earlier work
[8] = biological target: T2, σ1 receptors; test: biochemical
[9] = biological target: T1, σ2 receptors; test: σ2 competition binding, [3H]DTG with; remark: listed apart in the source
[10] = biological target: σ1; details: cited from earlier work
[11] = system: σ2; details: read-out: Ki at σ2 (nM) Literature (reported value is IC50); Guinea-pig brain; ref Chaki, 1994; cited from earlier work
[12] = read-out: Ki at σ2 (nM) Experimental Brain/Brandel, rat brain P2, 3 nM [3H]DTG with 300 nM (+)-pentazocine, cell harvester
[13] = Rat brain P2, 3 nM [3H]DTG with 1 μM dextrallorphan, ref Bowen, 1993
[14] = Rat brain P2 with 5 nM [3H](+)-pentazocine, ref Bowen, 1993

T2 sequence (Q9R0C9 whole entry): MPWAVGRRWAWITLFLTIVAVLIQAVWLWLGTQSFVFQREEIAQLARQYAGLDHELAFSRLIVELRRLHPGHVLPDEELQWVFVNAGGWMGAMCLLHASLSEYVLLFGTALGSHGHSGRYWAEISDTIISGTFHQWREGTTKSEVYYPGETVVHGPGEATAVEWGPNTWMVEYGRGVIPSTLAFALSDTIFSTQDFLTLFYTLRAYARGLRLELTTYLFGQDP

CCCc1ccc2c(c1)sc(=O)n2CCN1CCCCCC1 [SN56, 3-(2-(azepan-l-yl)ethyl)-6-propylbenzo[d]thiazol-2(3H)-one]
Ki [1, 12]: 627 ± 115 nM | Ki ([2]; ref h): > 1000 nM | Ki ([3]; ref h): 0.56 nM | Ki ([4]; read-out: Ki (nM) σ1, Table 2, 96-well filtration method, rat liver P2, 5 nM [3H](+)-pentazocine): 1.6 ± 0.1 nM | Ki σ2/Ki σ1 ([4]; selectivity ratio for σ1 versus σ2, 96-well method): 168 | Ki [5]: 1.7 ± 0.1 nM

CC(C)=CCN1CCC2(C)c3cc(O)ccc3CC1C2C (single isomer, unassigned; (-)) [(−)-pentazocine]
Ki [6, 13]: 108 ± 6 nM | Ki [1, 12]: 108 ± 4.4 nM | Ki [7, 14]: […]

CC(=O)[C@H]1CC[C@H]2[C@@H]3CCC4=CC(=O)CC[C@]4(C)[C@H]3CC[C@]12C [progesterone]
Ki [8]: 234 ± 4.4 nM | Ki [1]: > 10000 nM | Ki ([3]; ref f): 338 ± 8 nM | Ki [4]: 99.7 ± 3.1 nM | Ki [9]: > 10000 nM

COCCCC/C(=N\OCCN)c1ccc(C(F)(F)F)cc1 [fluvoxamine, fluvoxamine maleate]
Ki ([2]; ref e): 8440 nM | Ki ([3]; ref e): 36 nM

COc1ccc2c(c1)[C@]13CCCC[C@@H]1[C@H](C2)N(C)CC3 [dextromethorphan, dextromethorphan hydrobromide]
Ki [8]: 403 ± 22 nM | Ki [1]: > 10000 nM | Ki ([3]; ref g): 652 ± 33 nM | Ki [4]: 214 ± 15 nM | Ki [9]: > 10000 nM

c1ccc(CCN2CCCCC2)cc1 [AC927, N-phenethylpiperidine oxalate]
Ki ([6]; Rat brain P2, 3 nM [3H]DTG with 300 nM (+)-pentazocine, ref Matsumoto, 2008): 138 ± 18 nM | Ki [1, 12]: 384 ± 34 nM | Ki [5]: 61.2 ± 5.6 nM | Ki ([7]; Rat brain P2 with 3 nM [3H](+)-pentazocine, ref Matsumoto, 2008): 30 ± 2 nM

C[C@@H]1CN(CCCn2c3ccccc3c3ccccc32)C[C@H](C)N1 [rimcazole, rimcazole dihydrochloride monohydrate]
Ki [1]: 1570 ± 154 nM | Ki ([3]; ref g): 867 ± 185 nM | Ki [9]: 719 ± 72 nM

CC(C)=CCN1CC[C@]2(C)c3cc(O)ccc3C[C@H]1[C@H]2C [(+)-pentazocine, (+)-Pentazocine]
Ki [6, 13]: 1360 ± 134 nM | Ki [1]: 1410 ± 207 nM | Ki [9]: 1070 ± 94 nM | Ki [7, 14]: […]

CN1CCN(CCc2ccc(Cl)c(Cl)c2)CC1 [BD1063, 1-[2-(3,4-dichlorophenyl)ethyl]-4-methylpiperazine dihydrochloride]
Ki ([10]; read-out: Ki at σ1 (nM) Literature, Guinea-pig brain P2 with 3 nM [3H](+)-pentazocine, ref Matsumoto, 1995): 9.15 ± 1.28 nM | Ki [8]: 15 ± 2.1 nM | Ki [4]: 33.4 ± 4.1 nM

C=CCN1CCC2(C)c3cc(O)ccc3CC1C2C (single isomer, unassigned; (+)) [(+)-SKF10, 047, (+)-N-allylnormetazocine hydrochloride]
Ki [6, 13]: 33700 nM | Ki [5]: 287 ± 36 nM | Ki [7, 14]: 28.7 ± 2.8 nM

CCCN(CCC)CCc1ccc(OC)c(OCCc2ccccc2)c1 [NE100, 4-methoxy-3-(2-phenylethoxy)-N,N-dipropylbenzeneethanamine hydrochloride]
IC50 ([10]; read-out: Ki at σ1 (nM) Literature (reported value is IC50), Guinea-pig brain, ref Chaki, 1994): 1.54 ± 0.26 nM | Ki [8]: 2.8 ± 0.5 nM | Ki [1]: 95.5 ± 1 nM | Ki [4]: 2 ± 0.5 nM | Ki [9]: 36.2 ± 1.1 nM | IC50 [11]: 84.6 ± 32.9 nM
